Entries after “also recorded” stand apart in the source; their conditions may differ. Read-outs that look alike come from different tables or passages of the source.
Columns and labels:
[1] = system: IL-6 production by stimulated J774.A1 macrophages; assay: IL-6 production by LPS + IFN-γ stimulated J774.A1 macrophages (ELISA); format: cell-based, murine; settings: compounds at 62.5 μM, Dexa 40 μM, 24 h, vs stimulated untreated cells, p < 0.05
Description: (§1) Cells were then stimulated with LPS (500 ng/mL) and IFN-γ (5 ng/mL) in the presence of either the test compounds at different concentrations (3.9–250 μM), the medium alone, or dexamethasone (40 μM, reference drug) and further incubated at 37 °C. Cell-free supernatants were collected 24 h after incubation for IL-1β, IL-6, and nitrite quantification. Cytokine concentrations in the supernatants of J774.A1 cultures were determined by enzyme-linked immunosorbent assay (ELISA) using the DuoSet kit (R&D Systems, Minneapolis, MN, USA), according to the manufacturer’s instructions. Results were expressed as picograms per milliliter (pg/mL) of IL-1β or IL-6. Quantification of nitrite as an indicator of nitric oxide production was performed using the Griess method. Three independent experiments were performed. −

[2] = system: IL-1β production by stimulated J774.A1 macrophages; assay: IL-1β production by LPS + IFN-γ stimulated J774.A1 macrophages (ELISA); format: cell-based, murine; settings: compounds at 62.5 μM, Dexa 40 μM, 24 h, vs stimulated untreated cells, p < 0.05
Description: as §1

[3] = system: murine macrophage-like J774.A1 cells; assay: Cytotoxicity to J774.A1 macrophages (Alamar Blue); settings: concentrations up to 500 μM (compounds 7 and 13 up to 250 μM)
Description: Cells were incubated for 72 h at 37 °C in a 5% CO2 atmosphere, as previously described. They were then stimulated with LPS (500 ng/mL, Sigma Chemical Co., St. Louis, MO, USA) and IFN-γ (5 ng/mL, Sigma). Compounds were added to the medium at eight concentrations ranging from 1.9 to 500 μM, in triplicate, and incubated for 24 h. Subsequently, 20 μL per well of Alamar Blue (Invitrogen, Carlsbad, CA, USA) was added to the plates for 6 h. Compounds 7, 11, and 13 were evaluated only up to a maximum concentration of 250 μM due to the limited amount of purified material available for testing. Colorimetric readings were performed at 570 and 600 nm. Triton X-100 (5%) was used as the positive control.

[4] = system: nitric oxide production by stimulated J774.A1 macrophages; assay: Nitric oxide production by LPS + IFN-γ stimulated J774.A1 macrophages (nitrite, Griess method); format: cell-based, murine; settings: for IC50 / Emax: Mus musculus; for Emax: read-out: efficacy: maximum effect (% of the maximum possible effect), inhibition of NO production, J774.A1 macrophages stimulated with LPS + IFN-γ, 24 h
Description: as §1, with “For cytokine and nitric oxide evaluations, J774.A1 cells were seeded in 96-well tissue culture plates at 2 × 10^5 cells per well in DMEM supplemented with 10% FBS and 50 μg/mL gentamicin and incubated for 2 h at 37 °C in a 5% CO2 atmosphere, as previously described. Cells” for “Cells”

[5] = J774.A1, 24 h, read-out: IC50, half maximal inhibitory concentration, NO production, J774.A1 macrophages stimulated with LPS (500 ng/mL) + IFN-γ (5 ng/mL), 24 h, nitrite by Griess
[6] = J774.A1, read-out: IC50 (in Figure 8 panels), nitric oxide production, Figure 8, no unit in the boxes, μM only in axis labels, LPS + IFN-γ stimulated J774.A1

**Q.** `COC1CC(OC2CCC3(C)C(CCC4(O)C3CC(OC(C)=O)C3(C)C(C(C)O)CCC43O)C2)OC(C)C1OC1CC(OC)C(OC2OC(C)C(O)C(OC)C2O)C(C)O1` [Compound 16, 12-O-acetyl-(20S)-5,6,17-trihydrosarcostin-3-O-β-D-6-deoxy-3-O-methyl-allopyranosyl-(1 → 4)-β-D-oleandropyranosyl-(1 → 4)-β-D-cymaropyranoside] was tested. Which “production of IL-6 (in words)” value [1] did it give?
**A.** reduced IL-1β production but not IL-6

**Q.** And the “production of IL-1β (in words)” value [2]?
**A.** significant reduction

**Q.** And the “cytotoxic effects in J774 macrophages (in words)” value (shortened to “cytotoxic effects”) [3]?
**A.** only mild cytotoxicity at the highest concentrations

**Q.** What about the IC50 [4, 5] of the same compound?
**A.** 40 to 70 µM

**Q.** What about the Emax ([4]; J774.A1, 24 h) of the same compound?
**A.** < 50%

**Q.** Which results are given for `COC1CC(OC2C(C)OC(OC3CCC4(C)C(CCC5(O)C4CC(OC(=O)C=Cc4ccccc4)C4(C)C(O)(C(C)OC(=O)c6cccnc6)CCC54O)C3)CC2OC(C)=O)OC(C)C1OC1OC(C)C(O)C(OC)C1O` [Compound 3, 12-O-cinnamoyl-20-O-nicotinoyl-(20R)-5,6-dihydrosarcostin-3-O-β-D-6-deoxy-3-O-methyl-allopyranosyl-(1 → 4)-β-D-oleandropyranosyl-(1 → 4)-β-D-3′-O-acetyl-cymaropyranoside]?
**A.** production of IL-6 (in words) [1]: comparable to those of Dexa; production of IL-1β (in words) [2]: significant reduction; also recorded: comparable to those of Dexa; cytotoxic effects in J774 macrophages (in words) [3]: did not induce cytotoxic effects; efficacy: maximum effect (% of the maximum possible effect), inhibition of NO production ([4]; J774.A1 macrophages stimulated with LPS + IFN-γ, 24 h): 68.0%; IC50 [4, 5]: 29.1 µM; Emax ([4]; J774.A1, 24 h): 71.8%; IC50 [4, 6]: 29.1 µM

**Q.** Which “production of IL-6 (in words)” value [1] does the source give for `COC1CC(OC2CCC3(C)C(CCC4C3CC(OC(=O)C=Cc3ccccc3)C3(C)C(C(C)O)CCC43O)C2)OC(C)C1OC1CC(OC)C(OC2OC(C)C(O)C(OC)C2O)C(C)O1` [Compound 10, 12-O-cinnamoyl-(20S)-5,6,8,17-tetrahydrosarcostin-3-O-β-D-6-deoxy-3-O-methyl-allopyranosyl-(1 → 4)-β-D-oleandropyranosyl-(1 → 4)-β-D-cymaropyranoside] here?
**A.** significantly reducing; also recorded: comparable to those of Dexa

**Q.** And the “production of IL-1β (in words)” value [2]?
**A.** significantly reducing; also recorded: significant reduction; also recorded: comparable to those of Dexa

**Q.** What about the “cytotoxic effects” value [3] of the same compound?
**A.** most cytotoxic

**Q.** And the IC50 [4, 5]?
**A.** 17.5 µM

**Q.** And the Emax ([4]; J774.A1, 24 h)?
**A.** 66.1%

**Q.** And the IC50 [4, 6]?
**A.** 17.5 µM

**Q.** With `COC1CC(OC2CCC3(C)C(CCC4(O)C3CC(OC(=O)C=Cc3ccccc3)C3(C)C(O)(C(C)OC(=O)c5ccccc5)CCC43O)C2)OC(C)C1OC1CC(OC)C(OC2OC(C)C(O)C(OC)C2O)C(C)O1` [Compound 4, 12-O-cinnamoyl-20-O-benzoyl-(20R)-5,6-dihydrosarcostin-3-O-β-D-6-deoxy-3-O-methyl-allopyranosyl-(1 → 4)-β-D-oleandropyranosyl-(1 → 4)-β-D-cymaropyranoside] as the compound, how does the “production of IL-6 (in words)” value [1] read?
**A.** reduced IL-1β production but not IL-6

**Q.** And the “production of IL-1β (in words)” value [2]?
**A.** significant reduction

**Q.** And the “cytotoxic effects” value [3]?
**A.** did not induce cytotoxic effects

**Q.** And the IC50 [4, 5]?
**A.** > 100 µM

**Q.** What about the Emax ([4]; J774.A1, 24 h) of the same compound?
**A.** < 50%

— paper PMC13629022 (ACS Omega, 2026)
